According to paper PMC6887723, “Design and Synthesis of 4-(Heterocyclic Substituted Amino)-1H-Pyrazole-3-Carboxamide Derivatives and Their Potent Activity against Acute Myeloid Leukemia (AML)” (International Journal of Molecular Sciences, 2019):

Legend:
Experiment in all cases: NCI60 screening
Format in all cases: cell-based
U251 = conditions: Homo sapiens, U-251; CNS Cancer panel
Description: (§1) With these findings, we submitted compound 8t to National Cancer Institute (NCI) to evaluate their antitumor efficacy against 60 human cancer cell lines.

COLO 205 = conditions: Homo sapiens, Colon Cancer panel
Description: as §1

MDA-MB-435 = conditions: Homo sapiens, Melanoma panel
Description: as §1

NCI-H522 = conditions: Homo sapiens, Non-Small Cell Lung Cancer panel
Description: as §1

NCI-H322M = conditions: Homo sapiens, Non-Small Cell Lung Cancer panel
Description: as §1

OVCAR-3 = conditions: Homo sapiens, Ovarian Cancer panel
Description: as §1

PC-3 = conditions: Homo sapiens, Prostate Cancer panel
Description: as §1

SN12C = conditions: Homo sapiens, Renal Cancer panel
Description: as §1

SK-MEL-28 = conditions: Homo sapiens, Melanoma panel
Description: as §1

TK-10 = conditions: Homo sapiens, Renal Cancer panel
Description: as §1

CAKI-1 = conditions: Homo sapiens, Renal Cancer panel
Description: as §1

UACC-62 = conditions: Homo sapiens, Melanoma panel
Description: as §1

T-47D = conditions: Homo sapiens, T47D; Breast Cancer panel
Description: as §1

HCT-116 = conditions: Homo sapiens, Colon Cancer panel
Description: as §1

MALME-3M = conditions: Homo sapiens, Melanoma panel
Description: as §1

RPMI-8226 = conditions: Homo sapiens, Leukemia panel
Description: as §1

NCI-H226 = conditions: Homo sapiens, Non-Small Cell Lung Cancer panel
Description: as §1

IGROV1 = conditions: Homo sapiens, IGROV-1; Ovarian Cancer panel
Description: as §1

HCT-15 = conditions: Homo sapiens, Colon Cancer panel
Description: as §1

HT29 = conditions: Homo sapiens, HT-29; Colon Cancer panel
Description: as §1

SK-MEL-5 = conditions: Homo sapiens, Melanoma panel
Description: as §1

UO-31 = conditions: Homo sapiens, Renal Cancer panel
Description: as §1

## O=C(Nc1ccc(N2CCNCC2)cc1)c1n[nH]cc1Nc1ncnc2sc3c(c12)CCC3 [Compound 8t]
U251
  GI50: 0.11 µM
COLO 205
  GI50: 0.12 µM
MDA-MB-435
  GI50: 0.11 µM
NCI-H522
  GI50: 0.21 µM
NCI-H322M
  GI50: 0.14 µM
OVCAR-3
  GI50: 0.23 µM
PC-3
  GI50: 0.18 µM
SN12C
  GI50: 0.45 µM
SK-MEL-28
  GI50: 1.13 µM
TK-10
  GI50: 0.47 µM
CAKI-1
  GI50: 0.08 µM
UACC-62
  GI50: 1.09 µM
T-47D
  GI50: 0.59 µM
HCT-116
  GI50: 0.11 µM
MALME-3M
  GI50: 0.24 µM
RPMI-8226
  GI50: 0.89 µM
NCI-H226
  GI50: 0.32 µM
IGROV1
  GI50: 0.12 µM
HCT-15
  GI50: 0.22 µM
HT29
  GI50: 0.26 µM
SK-MEL-5
  GI50: 0.25 µM
UO-31
  GI50: 0.4 µM
